Each structure is given as a SMILES string.

The experiment can be described thus: Inhibition of spike glycoprotein S in SARS-CoV-2 pseudovirus infected human 293T/ACE2 cells assessed as inhibition of viral infection measured after 48 hrs by luciferase reporter gene assay. For orientation: Reporter assays use an easily measured gene product as a stand-in for the process of interest.
In the case of `C[C@@H]1O[C@@H](O[C@H]2[C@H](O[C@H]3CC[C@]4(C)[C@H]5CC=C6[C@@H]7CC(C)(C)CC[C@]7(C(=O)NCc7ccccc7Cl)CC[C@@]6(C)[C@]5(C)CC[C@H]4C3(C)C)O[C@H](CO)[C@@H](O[C@@H]3O[C@@H](C)[C@H](O)[C@@H](O)[C@H]3O)[C@@H]2O)[C@H](O)[C@H](O)[C@H]1O`, the IC50 turned out to be 6.32 µM. `O=C(/C=C/c1ccc(O)c2oc(-c3ccc(O)c(O)c3)cc12)O[C@H](Cc1ccc(O)c(O)c1)C(=O)O`: the IC50 turned out to be 3.85 µM. Take `C[C@@H]1O[C@@H](O[C@H]2[C@H](O[C@H]3CC[C@]4(C)[C@H]5CC=C6[C@@H]7CC(C)(C)CC[C@]7(C(=O)NCc7ccco7)CC[C@@]6(C)[C@]5(C)CC[C@H]4C3(C)C)O[C@H](CO)[C@@H](O[C@@H]3O[C@@H](C)[C@H](O)[C@@H](O)[C@H]3O)[C@@H]2O)[C@H](O)[C@H](O)[C@H]1O`: the IC50 was more than 20 µM. For `C[C@@H]1O[C@@H](O[C@H]2[C@H](O[C@H]3CC[C@]4(C)[C@H]5CC=C6[C@@H]7CC(C)(C)CC[C@]7(C(=O)NCc7ccccc7F)CC[C@@]6(C)[C@]5(C)CC[C@H]4C3(C)C)O[C@H](CO)[C@@H](O[C@@H]3O[C@@H](C)[C@H](O)[C@@H](O)[C@H]3O)[C@@H]2O)[C@H](O)[C@H](O)[C@H]1O`, the IC50 amounted to 5.68 µM.

Consider `C[C@@H]1O[C@@H](O[C@H]2[C@H](O[C@H]3CC[C@]4(C)[C@H]5CC=C6[C@@H]7CC(C)(C)CC[C@]7(C(=O)NCCCc7ccccc7)CC[C@@]6(C)[C@]5(C)CC[C@H]4C3(C)C)O[C@H](CO)[C@@H](O[C@@H]3O[C@@H](C)[C@H](O)[C@@H](O)[C@H]3O)[C@@H]2O)[C@H](O)[C@H](O)[C@H]1O`, for which the IC50 came out at 13.1 µM. Regarding `C[C@@H]1O[C@@H](O[C@H]2[C@H](O[C@H]3CC[C@]4(C)[C@H]5CC=C6[C@@H]7CC(C)(C)CC[C@]7(C(=O)NCc7ccccn7)CC[C@@]6(C)[C@]5(C)CC[C@H]4C3(C)C)O[C@H](CO)[C@@H](O[C@@H]3O[C@@H](C)[C@H](O)[C@@H](O)[C@H]3O)[C@@H]2O)[C@H](O)[C@H](O)[C@H]1O`, the IC50 was more than 20 µM.

In the case of `C[C@@H]1O[C@@H](O[C@H]2[C@H](O[C@H]3CC[C@]4(C)[C@H]5CC=C6[C@@H]7CC(C)(C)CC[C@]7(C(=O)NCc7cccs7)CC[C@@]6(C)[C@]5(C)CC[C@H]4C3(C)C)O[C@H](CO)[C@@H](O[C@@H]3O[C@@H](C)[C@H](O)[C@@H](O)[C@H]3O)[C@@H]2O)[C@H](O)[C@H](O)[C@H]1O`, the IC50 worked out at 5.89 µM. On to `C[C@@H]1O[C@@H](O[C@H]2[C@H](O[C@H]3CC[C@]4(C)[C@H]5CC=C6[C@@H]7CC(C)(C)CC[C@]7(C(=O)NCc7ccccc7)CC[C@@]6(C)[C@]5(C)CC[C@H]4C3(C)C)O[C@H](CO)[C@@H](O[C@@H]3O[C@@H](C)[C@H](O)[C@@H](O)[C@H]3O)[C@@H]2O)[C@H](O)[C@H](O)[C@H]1O`, for which the IC50 came out at 4.37 µM. On to `C[C@@H]1O[C@@H](O[C@H]2[C@H](O[C@H]3CC[C@]4(C)[C@H]5CC=C6[C@@H]7CC(C)(C)CC[C@]7(C(=O)Nc7ccccc7Cl)CC[C@@]6(C)[C@]5(C)CC[C@H]4C3(C)C)O[C@H](CO)[C@@H](O[C@@H]3O[C@@H](C)[C@H](O)[C@@H](O)[C@H]3O)[C@@H]2O)[C@H](O)[C@H](O)[C@H]1O`, for which the IC50 is 6.27 µM. To `C[C@@H]1O[C@@H](O[C@H]2[C@H](O[C@H]3CC[C@]4(C)[C@H]5CC=C6[C@@H]7CC(C)(C)CC[C@]7(C(=O)OCc7ccccc7)CC[C@@]6(C)[C@]5(C)CC[C@H]4C3(C)C)O[C@H](CO)[C@@H](O[C@@H]3O[C@@H](C)[C@H](O)[C@@H](O)[C@H]3O)[C@@H]2O)[C@H](O)[C@H](O)[C@H]1O` belongs 16.8 µM; to `C[C@@H]1O[C@@H](O[C@H]2[C@H](O[C@H]3CC[C@]4(C)[C@H]5CC=C6[C@@H]7CC(C)(C)CC[C@]7(C(=O)NCCc7ccccc7)CC[C@@]6(C)[C@]5(C)CC[C@H]4C3(C)C)O[C@H](CO)[C@@H](O[C@@H]3O[C@@H](C)[C@H](O)[C@@H](O)[C@H]3O)[C@@H]2O)[C@H](O)[C@H](O)[C@H]1O`, 7.37 µM; to `COc1cccc(NC(=O)[C@]23CCC(C)(C)C[C@H]2C2=CC[C@@H]4[C@@]5(C)CC[C@H](O[C@@H]6O[C@H](CO)[C@@H](O[C@@H]7O[C@@H](C)[C@H](O)[C@@H](O)[C@H]7O)[C@H](O)[C@H]6O[C@@H]6O[C@@H](C)[C@H](O)[C@@H](O)[C@H]6O)C(C)(C)[C@@H]5CC[C@@]4(C)[C@]2(C)CC3)c1`, 8.33 µM. `C[C@@H]1O[C@@H](O[C@H]2[C@H](O[C@H]3CC[C@]4(C)[C@H]5CC=C6[C@@H]7CC(C)(C)CC[C@]7(C(=O)NCc7ccccc7Br)CC[C@@]6(C)[C@]5(C)CC[C@H]4C3(C)C)O[C@H](CO)[C@@H](O[C@@H]3O[C@@H](C)[C@H](O)[C@@H](O)[C@H]3O)[C@@H]2O)[C@H](O)[C@H](O)[C@H]1O`: the IC50 came to 9.57 µM. To `C[C@@H]1O[C@@H](O[C@H]2[C@H](O[C@H]3CC[C@]4(C)[C@H]5CC=C6[C@@H]7CC(C)(C)CC[C@]7(C(=O)N(C)Cc7ccccc7)CC[C@@]6(C)[C@]5(C)CC[C@H]4C3(C)C)O[C@H](CO)[C@@H](O[C@@H]3O[C@@H](C)[C@H](O)[C@@H](O)[C@H]3O)[C@@H]2O)[C@H](O)[C@H](O)[C@H]1O` belongs 7.76 µM; to `COc1ccccc1CNC(=O)[C@]12CCC(C)(C)C[C@H]1C1=CC[C@@H]3[C@@]4(C)CC[C@H](O[C@@H]5O[C@H](CO)[C@@H](O[C@@H]6O[C@@H](C)[C@H](O)[C@@H](O)[C@H]6O)[C@H](O)[C@H]5O[C@@H]5O[C@@H](C)[C@H](O)[C@@H](O)[C@H]5O)C(C)(C)[C@@H]4CC[C@@]3(C)[C@]1(C)CC2`, 16.8 µM; to `C[C@@H]1O[C@@H](O[C@H]2[C@H](O[C@H]3CC[C@]4(C)[C@H]5CC=C6[C@@H]7CC(C)(C)CC[C@]7(C(=O)Nc7ccccc7)CC[C@@]6(C)[C@]5(C)CC[C@H]4C3(C)C)O[C@H](CO)[C@@H](O[C@@H]3O[C@@H](C)[C@H](O)[C@@H](O)[C@H]3O)[C@@H]2O)[C@H](O)[C@H](O)[C@H]1O`, 18.1 µM. For `COc1ccccc1NC(=O)[C@]12CCC(C)(C)C[C@H]1C1=CC[C@@H]3[C@@]4(C)CC[C@H](O[C@@H]5O[C@H](CO)[C@@H](O[C@@H]6O[C@@H](C)[C@H](O)[C@@H](O)[C@H]6O)[C@H](O)[C@H]5O[C@@H]5O[C@@H](C)[C@H](O)[C@@H](O)[C@H]5O)C(C)(C)[C@@H]4CC[C@@]3(C)[C@]1(C)CC2`, the IC50 worked out at 5.54 µM. `COc1ccc(NC(=O)[C@]23CCC(C)(C)C[C@H]2C2=CC[C@@H]4[C@@]5(C)CC[C@H](O[C@@H]6O[C@H](CO)[C@@H](O[C@@H]7O[C@@H](C)[C@H](O)[C@@H](O)[C@H]7O)[C@H](O)[C@H]6O[C@@H]6O[C@@H](C)[C@H](O)[C@@H](O)[C@H]6O)C(C)(C)[C@@H]5CC[C@@]4(C)[C@]2(C)CC3)cc1`: the IC50 worked out at 9.97 µM.

For orientation: IC50 means the point on the concentration scale where inhibition reaches its midpoint.

For the origin of these results see BindingDB's records for doi:10.1016/j.ejmech.2021.113242 (South China Agricultural University, 2021).
